As a reminder, the IC50 is the concentration needed to halve the response being measured. Lower therefore signals greater potency.

The source of these data is ChEMBL document CHEMBL1157493, “Synthesis and screening of small molecule inhibitors of anthrax edema factor” (Bioorg Med Chem Lett, 2008).

The assay deals with T1, Calmodulin-sensitive adenylate cyclase (Bacillus anthracis, UniProt P40136).
T1 sequence (P40136 whole entry): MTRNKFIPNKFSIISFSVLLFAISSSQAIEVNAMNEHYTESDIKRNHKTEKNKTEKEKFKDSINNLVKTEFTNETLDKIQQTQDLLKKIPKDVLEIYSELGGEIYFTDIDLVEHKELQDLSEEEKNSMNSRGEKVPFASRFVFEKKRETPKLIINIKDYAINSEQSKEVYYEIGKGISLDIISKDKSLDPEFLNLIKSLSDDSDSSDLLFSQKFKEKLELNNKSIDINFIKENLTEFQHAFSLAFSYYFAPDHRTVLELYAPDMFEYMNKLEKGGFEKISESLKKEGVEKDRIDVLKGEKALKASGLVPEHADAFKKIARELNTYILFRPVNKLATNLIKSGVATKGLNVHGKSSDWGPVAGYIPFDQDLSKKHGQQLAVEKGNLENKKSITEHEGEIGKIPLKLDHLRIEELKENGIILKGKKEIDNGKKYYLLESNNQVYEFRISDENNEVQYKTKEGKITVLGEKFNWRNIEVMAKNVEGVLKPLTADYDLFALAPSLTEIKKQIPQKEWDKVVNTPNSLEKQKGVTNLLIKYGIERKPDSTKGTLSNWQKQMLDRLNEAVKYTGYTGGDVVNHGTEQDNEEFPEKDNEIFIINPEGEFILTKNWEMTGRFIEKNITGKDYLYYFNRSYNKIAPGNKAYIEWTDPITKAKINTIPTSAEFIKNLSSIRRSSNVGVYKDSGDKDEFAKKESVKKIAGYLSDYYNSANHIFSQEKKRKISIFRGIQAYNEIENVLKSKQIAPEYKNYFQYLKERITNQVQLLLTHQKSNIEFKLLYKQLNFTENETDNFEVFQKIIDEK
The experiment in a line: Inhibition of Bacillus anthracis edema factor-induced edema in RAW264.7 mouse macrophages by cAMP-specific ELISA. Format: cell-based. Background: In an ELISA, binding on a coated surface is turned into a signal by an enzyme label.

Where only a bound is given, the exact number is not on record here.

With `COc1cccc(C2=CC(=O)CCC2)n1`, the IC50 is > 100 µM.

As to `CC1(C)CC(=O)C=C(c2cccc3c2oc2ccccc23)C1`, the IC50 was > 100 µM.

Turning to `O=C1C=C(c2cccs2)CCC1`, the half-maximal inhibitory concentration (IC50) is > 100 µM.

With `O=C1C=C(c2ccsc2)CCC1`, the IC50 is > 100 µM.

`O=C1C=C(c2ccc3ncccc3c2)CCC1`: the IC50 was > 100 µM.

For `O=C1C=C(c2cccc3c2oc2ccccc23)CCC1`, the IC50 was > 100 µM.

With `O=C1C=C(c2ccccc2)CCC1`, the half-inhibitory concentration (IC50) is > 100 µM.

In the case of `O=C1C=C(c2nccs2)CCC1`, the IC50 is > 100 µM.

For the compound `O=C1C=C(c2ccoc2)CCC1`, the IC50 was > 100 µM.

For the compound `Cn1cc(C2=CC(=O)CCC2)cn1`, the IC50 is > 100 µM.

Turning to `CC1(C)CC(=O)C=C(c2ccc3[nH]ccc3c2)C1`, the IC50 was > 100 µM.

Regarding `O=C1C=C(c2cccc(O)c2)CCC1`, the IC50 was > 100 µM.

For the compound `O=C1C=C(c2cccnc2)CCC1`, the IC50 was > 100 µM.
